The values that follow come from US20100105730A1 (H. Lundbeck A/S, priority 2007, published 2010).

In one assay the target is T1, SERT (Rattus norvegicus, UniProt P31652).
T1 construct: rat cortical synaptosome preparation; from tissue; host or cells: rat cortical synaptosomes
The experiment in a line: Serotonin (5-HT) reuptake inhibition, rat cortical synaptosomes. The following applies: rat cortical synaptosome preparation. The class given is biochemical. Here is the method:
(§1) Non-specific uptake was determined in the presence of 10 μM talsupram or citalopram and the total uptake was determined in the presence of buffer. Aliquots were incubated for 15 minutes at 37° C. […] Filters were washed and counted in a Wallac MicroBeta counter.

Assay [1] deals with T2, 5-HT2A receptors (Homo sapiens, UniProt P28223). The experiment in a line: Antagonism of 5-HT evoked Ca2+ release in CHO cells expressing human 5-HT2A receptors (FLIPR). Format: cell-based. On the set-up: expressed in transfected cells; host or cells: CHO cells. As for the experimental part: The experiment was carried out as follows. 2 or 3 days before the experiment CHO cells expressing 250 fmol/mg human 5-HT2A receptors are plated at a density sufficient to yield a mono-confluent layer on the day of the experiment. The cells are dye loaded (Ca^2+-kit from Molecular Devices) for 60 minutes at 37° C. in a 5% CO2 incubator at 95% humidity. Basal fluorescence was monitored in a fluorometric imaging plate reader or FLIPR^384 from Molecular Devices (Sunnyvale, Calif.) with an excitation wavelength of 488 nm and an emission range of 500 to 560 nm. […] The variation in basal fluorescence should be less than 10%. […] IC; values were calculated using Cheng-Prusoff equation.

The test system of assay [2] is formalin model of neuropathic pain. The experiment in a line: Formalin model of neuropathic pain in mice. The class given is in vivo, C57/B6 mice. As for the experimental part:
The irritation caused by the formalin injection elicits a characteristic biphasic behavioural response, as quantified by the amount of time spent licking the injured paw. The first phase (—O—10 minutes) represents direct chemical irritation and nociception, whereas the second (−20-30 minutes) is thought to represent pain of neuropathic origin. The two phases are separated by a quiescent period in which behaviour returns to normal. Measuring the amount of time spent licking the injured paw in the two phases assesses the effectiveness of test compounds to reduce the painful stimuli. Eight C57/B6 mice (ca. 25 g) were tested per group. […] The amount of compound administered is calculated as the free base.

Assay [3] has as its target T2, 5-HT2A receptors. The experiment in a line: 5-HT2A receptor affinity (MDL Pharmaservices catalogue number 271650). The class given is binding. On the set-up: purchased MDL Pharmaservices 271650.
In assay [4] the test system is extracellular dopamine (DA) levels in the rat frontal cortex. The assay can be described thus: Microdialysis, extracellular dopamine levels in rat frontal cortex. The class given is in vivo. The following applies: single injection. Here is the method:
Male Sprague-Dawley rats, initially weighing 275-300 g, were used. The animals were housed under a 12-hr light/dark cycle under controlled conditions for regular in-door temperature (21±2° C.) and humidity (55±5%) with food and tap water available ad libitum. For the three-day treatment experiments osmotic minipumps (Alzet, 2ML1) were used. The pumps were filled under aseptic conditions and implanted subcutaneously under sevoflurance anaesthesia. The experiments were carried out with the minipumps on board. Blood samples for measuring plasma levels of the test compound after 3 days of treatment were collected at the end of the experiments. Animals were anaesthetised with hypnorm/dormicum (2 ml/kg) and intracerebral guide cannulas (CMA/12) were stereotaxically implanted into the hippocampus, positioning the dialysis probe tip in the ventral hippocampus (co-ordinates: 5.6 mm […] to bregma, lateral—5.0 mm, 7.0 mm ventral to dura or in the frontal cortex (co-ordinates: 3.2 mm anterior to bregma; lateral, 3.0 mm; 4.0 mm ventral to dura). Anchor screws and acrylic cement were sued for fixation of the guide cannulas. The body temperature of the animals was monitored by rectal probe and maintained at 37° C. The rats were allowed to recover from surgery for 2 days, housed singly in cages. […]

The target in assay [5] is T3, human-homomeric 5-HT3A receptors (Homo sapiens, UniProt P46098).
T3 sequence (P46098 24-478): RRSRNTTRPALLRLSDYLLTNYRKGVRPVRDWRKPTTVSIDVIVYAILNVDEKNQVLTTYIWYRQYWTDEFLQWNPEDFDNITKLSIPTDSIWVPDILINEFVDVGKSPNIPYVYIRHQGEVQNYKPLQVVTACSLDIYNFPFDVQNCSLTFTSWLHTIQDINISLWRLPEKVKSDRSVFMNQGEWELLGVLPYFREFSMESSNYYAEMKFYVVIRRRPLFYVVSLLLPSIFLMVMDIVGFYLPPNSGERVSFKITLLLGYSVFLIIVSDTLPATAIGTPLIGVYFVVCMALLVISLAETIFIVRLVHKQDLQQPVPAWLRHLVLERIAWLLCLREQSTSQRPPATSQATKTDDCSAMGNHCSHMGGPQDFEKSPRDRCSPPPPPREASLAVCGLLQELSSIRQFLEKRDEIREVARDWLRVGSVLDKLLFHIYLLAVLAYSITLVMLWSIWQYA
The experiment in a line: Electrophysiology in oocytes expressing human-homomeric 5-HT3A receptors. Format: cell-based. Here is the method:
The experiments were carried out as follows. […] Oocytes avoid of the follicle layer were selected and incubated for 24 hours in Modified Barth's Saline buffer [88 mM NaCl, 1 mM KCl, 15 mM HEPES, 2.4 mM NaHCO3, 0.41 mM CaCl2, 0.82 mM MgSO4, 0.3 mM Ca(NO3)2] supplemented with 2 mM sodium pyruvate, 0.1 U/l penicillin and 0.1 μg/l streptomycin. Stage […] oocytes were identified and injected with 12-48 nl of nuclease free water containing 14-50 pg of cRNA coding for human 5-HT3A receptors receptors and incubated at 18° C. until they were used for electrophysiological recordings (1-7 days after injection). […] Cells were impaled with agar plugged 0.5-1 MΩ electrodes containing 3 M KCl and voltage clamped at −90 mV by a GeneClamp 500B amplifier. The oocytes were continuously perfused with Ringer buffer and the drugs were applied in the perfusate.

In a further assay the target is T4, α1A receptor (Homo sapiens, UniProt P35348).
T4 sequence (P35348 1-466): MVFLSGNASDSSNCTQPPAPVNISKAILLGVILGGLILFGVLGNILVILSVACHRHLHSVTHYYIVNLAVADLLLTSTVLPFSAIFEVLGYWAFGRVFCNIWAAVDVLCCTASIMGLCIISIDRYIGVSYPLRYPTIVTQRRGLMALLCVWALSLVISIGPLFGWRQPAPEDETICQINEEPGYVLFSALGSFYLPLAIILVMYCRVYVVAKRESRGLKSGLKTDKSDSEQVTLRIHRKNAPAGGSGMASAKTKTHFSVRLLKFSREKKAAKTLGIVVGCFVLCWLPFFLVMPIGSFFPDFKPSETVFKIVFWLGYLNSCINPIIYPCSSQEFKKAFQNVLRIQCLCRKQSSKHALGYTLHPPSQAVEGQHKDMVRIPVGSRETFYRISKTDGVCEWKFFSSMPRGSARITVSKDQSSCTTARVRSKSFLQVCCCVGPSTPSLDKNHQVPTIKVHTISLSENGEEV
The assay can be described thus: α1A receptor affinity, [3H]-Prazosin binding to membranes. The following applies: Ki by Cheng Prusoff, read-out: Ki, affinity for α1A receptors. Here is the method:
On the day of the experiments membranes (see below for description of membrane preparation) are thawed and homogenized in buffer using an ultra turrax and diluted to the desired concentration (5 μg/well˜5/900 μl, store on ice until use). The experiment is initiated by mixing of 50 μl test compound, 50 μl [^3H]-Prazosin and […], and the mixture is incubated for 20 minutes at 25° C. Non-specific binding is determined in the presence of 10 μM WB-4101 and the total binding is determined in the presence of buffer. After the incubation, bound ligand is separated from unbound by filtration through Unifilter GF/B, presoaked in 0.1% PEI for 30 minutes, using a Tomtec Cell Harvester program (D4.2..4). 96 well. Filters are washed 3 times with 1 ml ice-cold buffer, dried at 50° C. and 35 μl scintillation liquid/well is added to the filters. Bound radioactivity is counted in a Wallac OY 1450 MicroBeta. […] Concentrations of compound covering 2 decades were used to calculate the IC50 value.

The next assay concerns the target T5, NET (Rattus norvegicus, UniProt Q63380).
T5 construct: rat cortical synaptosome preparation; from tissue; host or cells: rat cortical synaptosomes
The experiment in a line: Norepinephrine (NE) reuptake inhibition, rat cortical synaptosomes. The class given is biochemical. As to conditions: rat cortical synaptosome preparation; read-out: IC50 at NET ([3H]NE uptake). As for the experimental part:
as §1

Assay [6] has as its system extracellular levels of acetylcholine in the prefrontal cortex and ventral hippocampus. The experiment in a line: Microdialysis, extracellular acetylcholine levels in freely-moving rats. The following applies: FIGS. 1a and 1b. The class given is in vivo, rat. Here is the method:
Male Sprague-Dawley rats, initially weighing 275-300 g, were used. The animals were housed under a 12-hr light/dark cycle under controlled conditions for regular in-door temperature (21±2° C.) and humidity (55±5%) with food and tap water available ad libitum.
Rats were anaesthetised with hypnorm/dormicum (2 ml/kg) and intracerebral guide cannulas (CMA/12) were stereotaxically implanted into the hippocampus, aiming to position the dialysis probe tip in the ventral hippocampus (co-ordinates: 5.6 mm posterior to bregma, lateral—5.0 mm, 7.0 mm ventral to dura or in the frontal cortex (co-ordinates: 3.2 mm anterior to bregma; lateral, 0.8 mm; 4.0 mm ventral to dura). Anchor screws and acrylic cement were used for fixation of the guide cannulas. The body temperature of the animals was monitored by rectal probe and maintained at 37° C. The rats were allowed to recover from surgery for 2 days, housed singly in cages. […]
Concentration of acetylcholine (ACh) in the dialysates was analysed by means of HPLC with electrochemical detection using a mobile phase consisting of 100 mM disodium hydrogenphosphate, 2.0 mM octane sulfonic acid, 0.5 mM tetramethylammonium chloride and 0.005% MB (ESA), pH 8.0. […] The latter was detected electrochemical by using a platinum electrode (Analytical cell: ESA, model 5040). […]

Assay [7] deals with T2, 5-HT2A receptors. The experiment in a line: Binding to human 5-HT2A receptors expressed in mammalian cells. As to conditions: mammalian cells expressing human 5-HT2A receptors. On the set-up: expressed in transfected cells; host or cells: CHO cells.

Read-outs that look alike come from different tables or passages of the source.

T2 sequence (P28223 whole entry): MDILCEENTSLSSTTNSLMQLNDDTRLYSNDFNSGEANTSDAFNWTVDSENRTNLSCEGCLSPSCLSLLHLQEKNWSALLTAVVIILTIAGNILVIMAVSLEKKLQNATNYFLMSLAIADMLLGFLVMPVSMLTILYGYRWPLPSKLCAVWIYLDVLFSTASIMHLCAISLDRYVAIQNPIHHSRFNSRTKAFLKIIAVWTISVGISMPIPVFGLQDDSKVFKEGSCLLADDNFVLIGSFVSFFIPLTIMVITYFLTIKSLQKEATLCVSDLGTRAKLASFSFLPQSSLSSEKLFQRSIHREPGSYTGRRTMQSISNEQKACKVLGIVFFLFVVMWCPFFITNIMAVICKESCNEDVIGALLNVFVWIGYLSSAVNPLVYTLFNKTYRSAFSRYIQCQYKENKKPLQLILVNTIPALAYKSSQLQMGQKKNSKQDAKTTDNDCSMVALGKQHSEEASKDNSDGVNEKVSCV
T1 sequence (P31652 whole entry): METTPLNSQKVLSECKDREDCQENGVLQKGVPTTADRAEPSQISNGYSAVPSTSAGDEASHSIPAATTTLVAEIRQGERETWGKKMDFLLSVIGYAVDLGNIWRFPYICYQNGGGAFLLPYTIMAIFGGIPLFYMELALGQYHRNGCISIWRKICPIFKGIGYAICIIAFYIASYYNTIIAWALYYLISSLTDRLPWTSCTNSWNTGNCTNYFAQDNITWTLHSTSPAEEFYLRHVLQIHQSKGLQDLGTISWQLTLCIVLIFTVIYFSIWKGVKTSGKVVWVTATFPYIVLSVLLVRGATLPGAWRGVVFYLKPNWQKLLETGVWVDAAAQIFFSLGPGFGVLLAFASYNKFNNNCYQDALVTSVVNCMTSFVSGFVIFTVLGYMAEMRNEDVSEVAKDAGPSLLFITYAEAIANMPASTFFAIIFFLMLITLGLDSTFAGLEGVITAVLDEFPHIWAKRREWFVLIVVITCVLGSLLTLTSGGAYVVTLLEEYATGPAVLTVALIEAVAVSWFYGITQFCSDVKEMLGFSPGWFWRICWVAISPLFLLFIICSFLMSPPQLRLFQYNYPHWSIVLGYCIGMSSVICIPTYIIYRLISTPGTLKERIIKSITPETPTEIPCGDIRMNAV
T5 sequence (Q63380 1-617): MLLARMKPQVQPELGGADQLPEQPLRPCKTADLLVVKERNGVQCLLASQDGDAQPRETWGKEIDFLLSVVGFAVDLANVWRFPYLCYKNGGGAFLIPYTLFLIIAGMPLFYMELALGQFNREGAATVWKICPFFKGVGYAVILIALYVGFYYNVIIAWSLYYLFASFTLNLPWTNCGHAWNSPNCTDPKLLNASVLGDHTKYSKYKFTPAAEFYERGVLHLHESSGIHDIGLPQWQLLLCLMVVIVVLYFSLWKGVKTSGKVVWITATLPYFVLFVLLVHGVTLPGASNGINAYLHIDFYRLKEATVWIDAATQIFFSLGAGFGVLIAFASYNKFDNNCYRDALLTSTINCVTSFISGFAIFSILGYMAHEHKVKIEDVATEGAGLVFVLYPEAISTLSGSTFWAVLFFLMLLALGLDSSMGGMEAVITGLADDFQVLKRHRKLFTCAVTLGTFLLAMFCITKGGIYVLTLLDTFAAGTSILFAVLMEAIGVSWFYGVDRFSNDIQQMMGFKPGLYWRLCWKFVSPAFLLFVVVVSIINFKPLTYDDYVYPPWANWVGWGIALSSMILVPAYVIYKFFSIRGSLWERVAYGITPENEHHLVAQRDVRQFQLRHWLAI

On to `Cc1ccc(Sc2ccccc2C2CCNCC2)cc1` [compound I, 4-[2-(4-methylphenylsulfanyl)phenyl]piperidine], for which the IC50 at SERT is 8 nM; in assay [5] (read-out: IC50, antagonism in low concentrations) it was approximately 10 nM; at NET, 23 nM. Further, the Kb at 5-HT2A receptors [1] (Kb, antagonism of 5-HT evoked release of Ca2+ from intracellular stores, functional assay) was 67 nM; on 5-HT2A receptors [1] (schild analysis, read-out: Kb, schild analysis (competitive antagonism)), 100 nM; in assay [5] (0.1 nM-100 nM, read-out: Kb, antagonism in low concentrations), approximately 2 nM. The “time spent licking the injured paw, 0-5 minutes” value was 37 s in assay [2] (1.0 mg/kg, first phase) and 37 s in assay [2] (10 mg/kg, first phase). In assay [2] (1.0 mg/kg, second phase), the “time spent licking the injured paw, 20-30 minutes” value was determined as 43 s. In assay [2] (first phase, in words), the “effect in the first phase (direct chemical irritation and nociception)” value is reported as “little effect”. Also, in [2] (second phase, in words), the “time spent licking paws in the second phase” value was “clear and dose dependent decrease”. The inhibitory constant (Ki) – broadly, the dissociation constant of the complex between target and ligand, obtained from inhibition or displacement – is 54 nM on 5-HT2A receptors [3], 34 nM on α1A receptor and less than 100 nM on 5-HT2A receptors [7]. Also, the “enhancement of DA levels above baseline levels” value in assay [4] (8.9 mg/kg s.c.) is recorded as “approximately 100%”; in assay [4] (18 mg/kg s.c.), approximately 150%. The EC50 in assay [5] (100-100000 nM, read-out: EC50, agonistic properties in higher concentrations) is approximately 2600 nM. In addition, the “maximal current, % of the maximal current elicited by 5-HT itself” value in assay [5] (agonism at higher concentrations (100-100000 nM)) is on record as 70-80%. For the same molecule, the “extra-cellular acetylcholine levels in the brain” value in [6] is listed as “dose dependent increase”.
